# Entries after “also recorded” stand apart in the source; their conditions may differ. Like-named read-outs stand apart in the source and are kept apart here.
# Assays:
# [1] = cited from earlier work
# [2] = tested on: xenograft tumor models; conditions: under proper dose scheduling; cited from earlier work
# [3] = cited from earlier work; remark: listed apart in the source
# [4] = tested on: C4-2 castrate resistant prostate cancer cells; experiment: Cell viability (CellTiter-Glo, 72 h) of drug combinations vs Bliss expected; assay type: cell-based; conditions: for tumor cell killing of PLK inhibitor combined with abiraterone, vs expected additive: C4-2 CRPC cells, 72 hours, Bliss independence
# [5] = doses of 24 to 48 mg/m^2 for 5 consecutive days every 4 weeks; cited from earlier work
# [6] = cited from earlier work; remark: listed apart in the source
# [7] = tested on: panel of >50 other kinases; conditions: concentrations up to 10 μM; in vitro; cited from earlier work
# [8] = tested on: HCT116, NCI-H460, and taxane-resistant CXB1 colon carcinoma xenografts; conditions: mouse model; ~25 mg/kg/day; cited from earlier work
# [9] = advanced solid tumors; cited from earlier work
# [10] = cited from earlier work; remark: listed apart in the source
# [11] = tested on: C4-2 CRPC cells; experiment: Identification of mitotic (pHH3) and apoptotic (cleaved caspase-3) cells by flow cytometry; assay type: cell-based; conditions: drug added to onvansertib
# Method: C4-2 CRPC cells were plated in 6-well plates at a density of 300,000 cells per well and a total volume of 3 mls. The following day the indicated drugs were diluted in the appropriate growth media while maintaining a constant final concentration of DMSO and added to the wells. After the indicated amount of time cells were harvested by trypsinization. The media, trypsin and PBS wash were collected together to avoid loss of loosely attached or detached cells. Cells were fixed in 4% formaldehyde in PBS for 15 minutes, washed with PBS containing 1% bovine serum albumin (PBS-BSA), and then stored in methanol at −20° C. overnight. Cells were then washed twice in PBS-BSA 0.1% Tween-20, incubated with primary antibodies overnight at 4° C., washed with PBS-BSA 0.1% Tween-20 and incubated for 1 hour with fluorescent-dye conjugated secondary antibodies (diluted 1:200, Alexa Fluor, Molecular Probes) at room temperature for 1 hour. Primary antibodies included anti-phospho-serine 10 histone H3 (clone 3H10, Millipore) and anti-active caspase-3 (clone C92-605, BD Pharmingen). The fixed cells were then washed with PBS-BSA 0.1% Tween-20 and resuspended in PBS containing 1 μg/ml 4,6-diamidino-2-phenylindole (DAPI, Molecular Probes) to stain DNA and analyzed using a BD™ LSRII flow cytometer (Becton Dickinson) and the FlowJo™ software package.
# [12] = tested on: C4-2 CRPC cells expressing histone H2B-mCherry and mEmerald-tubulin; experiment: Time-lapse live-cell microscopy and spindle orientation analysis; assay type: cell-based; conditions: for frequency of division not parallel to the growth surface: live-cell microscopy; for spindle orientation / spindle rotation during mitosis: net angular displacement and cumulative angular distance
# Method: C4-2 CRPC cells expressing histone H2B-mCherry and mEmerald-tubulin. were plated in 12-well plates in phenol red free media, the following day drugs were added as indicated and the cells were imaged on a EVOS™ FL Auto Cell Imaging System equipped with an onstage incubator to maintain 37° C., adequate humidity, and 5% CO2. Images were acquired at 15-minute intervals for 72 hours using a 20× objective lens. For the rotation analysis, the angle of the spindles major axis was tracked starting from when it was first apparent, prometaphase, until telophase. The net angular displacement is the total change in angle of the spindle during mitosis from start until finish and is the absolute value of the sum of all stepwise rotations. The cumulative angular distance is the total amount of rotation regardless of direction that occurred during mitosis and is the sum of the absolute value of all rotations.
# [13] = tested on: colorectal cancer cell HT-29; conditions: read-out: anti-proliferative IC50; cited from earlier work
# [14] = target: PLK1 (Homo sapiens, UniProt P53350); conditions: cited from earlier work
# [15] = tested on: prostate cancer cell PC3; conditions: read-out: anti-proliferative IC50; cited from earlier work
# [16] = tested on: HT-29 human colorectal tumors; conditions: HT-29 tumors in nude mouse, cited from earlier work
# [17] = tested on: breast cancer cell MDA-MB-468; conditions: read-out: anti-proliferative IC50; cited from earlier work
# [18] = tested on: lung cancer cell line H82; conditions: read-out: anti-proliferative IC50; cited from earlier work
# [19] = tested on: skin cancer cell A375; conditions: read-out: anti-proliferative IC50; cited from earlier work
# [20] = target: several tyrosine kinases and cyclin-dependent kinase 1 (Cdk1); conditions: cited from earlier work
# [21] = cited from earlier work; remark: listed apart in the source
# [22] = tested on: BT20 cells xenograft; conditions: 200 mg/kg; cited from earlier work
# [23] = tested on: Bel-7402, MCF-7, and MIA-PaCa cells xenografts; conditions: 250 mg/kg; Bel-7402, MCF-7, MIA-PaCa xenografts; cited from earlier work
# [24] = tested on: tumor cells and normal cells; conditions: cited from earlier work
# [25] = tested on: more than 90 cell lines (multiple cancer types); experiment: Combinatorial drug screening of more than 90 cell lines for more than additive effect; assay type: cell-based; conditions: onvansertib and abiraterone; more than 90 cell lines screened; data not shown
# [26] = tested on: large number of cell lines, solid and hematological tumors; conditions: cited from earlier work
# [27] = tested on: PSN-1 pancreatic cancer cells; experiment: Cell viability (CellTiter-Glo, 72 h) of drug combinations vs Bliss expected; assay type: cell-based; conditions: onvansertib 22.2 nM plus abiraterone
# [28] = tested on: OAW28 ovarian cancer cells; experiment: as above; assay type: cell-based; conditions: onvansertib 15 nM plus abiraterone
# [29] = tested on: OCI-AML-3 acute myeloid leukemia cells; experiment: as above; assay type: cell-based; conditions: onvansertib 22.2 nM plus abiraterone
# [30] = tested on: LNCaP androgen-dependent prostate cancer cells; experiment: as above; assay type: cell-based; conditions: Bliss independence
# [31] = tested on: MV-4-11 acute myeloid leukemia cells; experiment: as above; assay type: cell-based; conditions: onvansertib 22.2 nM plus abiraterone
# [32] = tested on: Panc 10.05 pancreatic cancer cells; experiment: as above; assay type: cell-based; conditions: onvansertib 33.3 nM plus abiraterone
# [33] = tested on: several tumor cell lines, including those that express MDR1; conditions: including lines that express multidrug-resistant protein 1 (MDR1); cited from earlier work
# [34] = tested on: various human tumor cell lines; conditions: cited from earlier work
# [35] = tested on: mouse xenograft models; conditions: 10 mg/kg and 20 mg/kg on days 1 and 28; cited from earlier work
# [36] = tested on: Cdc25C-T96 phosphorylation; conditions: read-out: EC50, Cdc25C-T96 phosphorylation; cited from earlier work
# [37] = preclinical, cited from earlier work
# [38] = tested on: cell mitosis; conditions: read-out: EC50, inhibition of cell mitosis; cited from earlier work
# Chain of PLK1 (P53350 whole entry): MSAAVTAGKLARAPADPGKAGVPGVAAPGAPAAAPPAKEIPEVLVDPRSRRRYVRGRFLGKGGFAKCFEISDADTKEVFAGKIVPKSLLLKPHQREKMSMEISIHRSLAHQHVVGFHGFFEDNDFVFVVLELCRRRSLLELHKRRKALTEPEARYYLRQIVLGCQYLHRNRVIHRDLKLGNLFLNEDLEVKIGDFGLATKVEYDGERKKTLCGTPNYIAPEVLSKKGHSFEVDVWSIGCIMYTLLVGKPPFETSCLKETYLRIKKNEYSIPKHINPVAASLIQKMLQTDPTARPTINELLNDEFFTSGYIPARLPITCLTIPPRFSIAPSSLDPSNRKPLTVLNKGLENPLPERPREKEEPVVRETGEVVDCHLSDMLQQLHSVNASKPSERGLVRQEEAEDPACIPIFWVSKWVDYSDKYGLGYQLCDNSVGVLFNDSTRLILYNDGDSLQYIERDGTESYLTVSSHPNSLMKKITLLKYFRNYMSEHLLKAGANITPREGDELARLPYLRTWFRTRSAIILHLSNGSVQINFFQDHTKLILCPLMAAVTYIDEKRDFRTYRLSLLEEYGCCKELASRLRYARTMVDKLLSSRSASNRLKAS
structure (smiles),measurement,setting,value
"CC(=O)O[C@H]1CC[C@@]2(C)C(=CC[C@@H]3[C@@H]2CC[C@]2(C)C(c4cccnc4)=CC[C@@H]32)C1 [Abiraterone acetate, abiraterone acetate]",solubility in water,[1],practically insoluble
C[C@@H](Oc1cc(-n2cnc3ccc(CN4CCN(C)CC4)cc32)sc1C(N)=O)c1ccccc1C(F)(F)F [GSK461364],effect in xenograft tumor models,[2],tumor regression
same,DLTs,"[3]; i.v., schedules A and B, 28-day cycle","grade 4 neutropenia, sepsis, and pulmonary embolism"
same,incidence of venous thrombotic emboli (VTE),[3]; in vivo,20%
same,final recommended phase II dose,"[3]; intravenously, schedule A (days 1, 8, and 15)",225 mg
same,"tumor cell killing of PLK inhibitor combined with abiraterone, vs expected additive",[4],more than additive
COc1ccc(S(=O)(=O)N(C(C)=O)c2ccccc2/C=C/c2cc[n+]([O-])cc2)cc1 [HMN-214],DLTs,[5],"prolonged neutropenia, febrile neutropenia, neutropenic sepsis, electrolyte disturbance, neuropathy, and myalgia"
same,dose-limiting toxicities,[6]; at 9.9 mg/m^2/d,severe myalgia/bone pain syndrome and hyperglycemia
same,maximum tolerated dose and recommended dose,[6]; continuous 21-day dosing schedule every 28 days,8.0 mg/m^2/d
"CC[C@@H]1C(=O)N(C)c2cnc(Nc3ccc(C(=O)N[C@H]4CC[C@H](N5CCN(CC6CC6)CC5)CC4)cc3OC)nc2N1C(C)C [BI6727, volasertib]",inhibitory activity against a panel of >50 other kinases,[7],no inhibitory activity
same,growth of multiple human carcinoma xenografts,[8],significantly inhibits the growth
same,MTD in combination with afatinib,[9],300 mg
same,recommended dose for further development,[10]; based on overall tolerability,300 mg
same,MTD,"[10]; i.v. once every 3 weeks, advanced solid tumors",400 mg
same,DLTs,"[10]; i.v. once every 3 weeks, dose escalation 12-450 mg","neutropenia, thrombocytopenia, and febrile neutropenia"
same,"tumor cell killing of PLK inhibitor combined with abiraterone, vs expected additive",[4],more than additive
C[C@]12CC[C@H](O)CC1=CC[C@@H]1[C@@H]2CC[C@]2(C)C(c3cccnc3)=CC[C@@H]12 [abiraterone],effect on apoptotic cell death (cleaved Caspase-3 positive cells) after onvansertib,[11],exacerbates subsequent apoptotic cell death
same,effect on mitotic arrest (pHH3 positive cells) caused by PLK1 inhibitor onvansertib,[11],dramatically increased the frequency of mitotic arrest; also recorded: enhances the mitotic arrest
same,frequency of division not parallel to the growth surface,[12],increased
same,spindle orientation / spindle rotation during mitosis,[12],disrupted proper spindle orientation
COc1cc(C(=O)NC2CCN(C)CC2)ccc1NC1NCC2C(N1)N(C1CCCC1)CC(F)(F)C(=O)N2C (stereo not shown) [RO3280],IC50,[13],0.01 µM
same,IC50,[14],0.003 µM
same,IC50,[15],0.012 µM
same,antitumor activity,[16]; dosed more frequently,complete tumor regression
same,tumor growth inhibition,[16]; once weekly at 40 mg/kg,72%
same,IC50,[17],0.019 µM
same,IC50,[18],0.005 µM
same,IC50,[19],0.07 µM
"COc1cc(OC)c(/C=C/S(=O)(=O)Cc2ccc(OC)c(NCC(=O)[O-])c2)c(OC)c1.[Na+] [ON 01910, rigosertib]",IC50,[20],0.018 to 0.26 µM
same,DLT,[21]; at the MTD,Grade 3 abdominal pain
same,MTD,"[21]; i.v., days 1, 4, 8, 11, 15, and 18 in 28-day cycles","3,120 mg"
same,tumor growth,[22],inhibition of tumor growth
same,tumor growth,[23],inhibited tumor growth
CN1CCN(c2ccc(OC(F)(F)F)c(Nc3ncc4c(n3)-c3c(c(C(N)=O)nn3CCO)CC4)c2)CC1 [onvansertib],sensitivity of tumor cells to induced cell death relative to normal cells,[24],10 fold
same,cell lines in which the more than additive effect was detected,[25],approximately 30%
same,activity in proliferation assays,[26],low nanomolar activity
same,response to the combination of abiraterone and PLK1 inhibitor vs expected additive,[27],greater than additive response
same,"tumor cell killing of PLK inhibitor combined with abiraterone, vs expected additive",[4],more than additive
same,response to the combination of abiraterone and PLK1 inhibitor vs expected additive,[28],do not have a greater than additive response
same,response to the combination of abiraterone and PLK1 inhibitor vs expected additive,[29],do not have a greater than additive response
same,"viability effect of PLK1 inhibitor combined with abiraterone, vs expected additive",[30],No greater than additive effect
same,response to the combination of abiraterone and PLK1 inhibitor vs expected additive,[31],greater than additive response
same,response to the combination of abiraterone and PLK1 inhibitor vs expected additive,[32],do not have a greater than additive response
COc1cc(C(=O)NC2CCN(C)CC2)c(F)cc1Nc1ncc2c(n1)N(C1CCCC1)CC(F)(F)C(=O)N2C [TAK-960],activity in tumor cell lines,[33],shown activity
COc1ccc(S(=O)(=O)Nc2ccccc2/C=C/c2cc[n+]([O-])cc2)cc1 [HMN-176],cytotoxicity toward various human tumor cell lines,[34],potent cytotoxicity
same,antitumor activity in mouse xenograft models,[35],potent antitumor activity
same,enzymatic activity of PLK1,[14]; affects subcellular distribution of PLK1 instead,does not directly inhibit
Cc1ncc(CCCN(C)C)cc1Nc1ncc2c(n1)-c1ccc(C(F)(F)F)cc1NC(=S)C2 [MLN0905],EC50,[36],0.029 µM
same,maximum tolerated dose,[37]; QD (daily) schedule,6.25 mg/kg
same,maximum tolerated dose,[37]; QD×3/wk (3-days on/4-days off) schedule,14.5 mg/kg
same,EC50,[38],0.009 µM
CNC(=O)c1ccc(N2C(=S)N(c3ccc(C#N)c(C(F)(F)F)c3)C(=O)C2(C)C)cc1F [enzalutamide],effect on mitotic arrest (pHH3 positive cells) caused by PLK1 inhibitor onvansertib,[11],does not enhance the mitotic arrest
same,frequency of division not parallel to the growth surface,[12],did not result in these phenotypes
same,spindle orientation / spindle rotation during mitosis,[12],did not result in these phenotypes
same,more than additive effect with PLK1 inhibitors,"[4]; C4-2 cells, enzalutamide combined with onvansertib or BI2536",not observed
